Among the test systems are KM12; A498; U-251; SK-OV-3; SK-MEL-28; NCI-H522; TK-10; EKVX; SNB-19; OVCAR-8; A549; HCT-15; UO-31; RXF 393; SNB-75; 786-0; NCI/ADR-RES.
Common to all, as to assay: NCI-60 cell line screen, 48 h

Results on 13 compounds are retold here after ChEMBL document CHEMBL1201862, “PubChem BioAssay data set” (2004).

Each structure is given as a SMILES string.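 Five concentrations, 48 hours, 96-well plates. GI50 marks 50% less growth.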 Active and inactive are the calls of the source. No stated cut-off is given here; in the data, active = GI50 up to about 1.1 µM and inactive = higher. Bounds are passed on as bounds.

As for `CN1C(=N\S(=O)(=O)c2ccc(Cl)cc2)/C(=N/N=P(c2ccccc2)(c2ccccc2)c2ccccc2)c2ccccc21`, the GI50 in the assay with KM12, in the assay with A498, with U-251, in the assay on SK-OV-3, in the assay on SK-MEL-28 and in the assay with NCI-H522 was > 100 µM (inactive) each time. Besides, the GI50 in the assay on TK-10 was > 100 µM (inactive); with EKVX, > 100 µM (inactive); in the assay on SNB-19 it was > 100 µM (inactive); in the assay on OVCAR-8 it was > 100 µM (inactive); with A549, 95.7 µM (inactive); in the assay on HCT-15, above 100 µM. The GI50 with UO-31, in the assay with RXF 393 and with SNB-75 was > 100 µM (inactive) each time.

For the compound `O=C(NN1C(=O)CSC1c1ccc(Cl)c(Cl)c1)c1ccncc1` (stereo not given), the GI50 in the assay with KM12 is 38.1 µM (inactive); in the assay on A498, 29.9 µM (inactive); in the assay on U-251, > 100 µM (inactive); in the assay on SK-OV-3, > 100 µM (inactive); in the assay on SK-MEL-28 it was > 100 µM (inactive); in the assay on NCI-H522 it was 72.8 µM (inactive). For the same compound, the GI50 with TK-10 is 57.7 µM (inactive); with EKVX, > 100 µM (inactive); in the assay with SNB-19 it was > 100 µM (inactive); in the assay on OVCAR-8 it was 86.7 µM (inactive); with A549 it was 58.1 µM (inactive); in the assay on HCT-15, 72.6 µM. The figures for the GI50 in the assay on UO-31, with RXF 393 and in the assay with SNB-75 were 85.1 µM (inactive), 58.3 µM (inactive) and > 100 µM (inactive), respectively.

For `Cc1ccc2c(c1)C1C(CO2)C(c2ccccc2)=NN1c1ccccc1` (stereo not given), the GI50 with KM12, with A498, in the assay on U-251, with SK-OV-3, with SK-MEL-28 and in the assay with NCI-H522 was > 100 µM (inactive) in each case. Besides, the GI50 in the assay on TK-10, with EKVX, with SNB-19, in the assay on OVCAR-8, in the assay with A549 and in the assay with UO-31 was > 100 µM (inactive) in each case. Also, the GI50 in the assay on RXF 393, in the assay on 786-0 and with SNB-75 was > 100 µM (inactive) throughout.

Regarding `CC1(C)OC(C(N)=O)=C(C(N)=O)O1`, the GI50 with KM12, with A498, with U-251, in the assay on SK-OV-3, with SK-MEL-28 and in the assay with NCI-H522 was > 100 µM (inactive) in each case. Also, the GI50 was > 100 µM (inactive) in the assay on TK-10; > 100 µM (inactive) with EKVX; > 100 µM (inactive) in the assay on SNB-19; > 100 µM (inactive) in the assay with OVCAR-8; > 100 µM (inactive) in the assay with A549; above 100 µM in the assay on HCT-15. Besides, the GI50 with UO-31, in the assay with RXF 393, with 786-0 and in the assay on SNB-75 was > 100 µM (inactive) throughout.

For the compound `C=CCNC(=O)C(C)C1CCC2(C)C=CC(=O)C(C)=C2C1O` (stereo not given), the GI50 in the assay with KM12, in the assay with A498, with U-251, with SK-OV-3, with SK-MEL-28 and with NCI-H522 was > 100 µM (inactive) throughout. For the same compound, the GI50 in the assay with EKVX was > 100 µM (inactive); with SNB-19, > 100 µM (inactive); in the assay on OVCAR-8, > 100 µM (inactive); in the assay with NCI/ADR-RES it was > 100 µM (inactive); in the assay with A549, > 100 µM (inactive); in the assay on HCT-15, above 100 µM. For the same compound, the GI50 in the assay with UO-31, in the assay on RXF 393 and in the assay on SNB-75 was > 100 µM (inactive) throughout.

On to `O=P(c1ccccc1)(c1ccccc1)C1CC=C(c2ccccc2)C2(CCCC2)C1` (stereo not given), for which the GI50 was 40.4 µM (inactive) in the assay on KM12; 74.8 µM (inactive) with A498; 94 µM (inactive) in the assay on U-251; > 100 µM (inactive) in the assay on SK-OV-3; 40.1 µM (inactive) in the assay with SK-MEL-28; 8.79 µM (inactive) in the assay with NCI-H522. Further, the GI50 in the assay on TK-10 is 72.3 µM (inactive); in the assay with EKVX, > 100 µM (inactive); in the assay with SNB-19, 48.6 µM (inactive); in the assay with OVCAR-8, 83.4 µM (inactive); in the assay with A549 it was 40.3 µM (inactive); with HCT-15, 36.1 µM. Further, the GI50 is 25.3 µM (inactive) with UO-31, 9.23 µM (inactive) in the assay on RXF 393, 98.9 µM (inactive) in the assay on 786-0 and 30.7 µM (inactive) with SNB-75.

Take `c1c(N2CCOCC2)s[s+]c1N1CCOCC1`: the GI50 in the assay on KM12, in the assay on A498, in the assay with U-251, in the assay with SK-OV-3, in the assay on SK-MEL-28 and in the assay on NCI-H522 was > 100 µM (inactive) in each case. Besides, the GI50 in the assay with TK-10 is 76.6 µM (inactive); in the assay with EKVX it was > 100 µM (inactive); in the assay with SNB-19, > 100 µM (inactive); in the assay with OVCAR-8 it was > 100 µM (inactive); in the assay with A549, > 100 µM (inactive); with HCT-15, above 100 µM. The GI50 in the assay with UO-31, in the assay on RXF 393, with 786-0 and with SNB-75 was > 100 µM (inactive) in each case.

`[O-]c1on[n+]2c1c(Nc1ccc(Cl)cc1)nc1ccccc12`: the GI50 in the assay with KM12, in the assay with A498, in the assay with U-251, with SK-OV-3, with SK-MEL-28 and in the assay on NCI-H522 was > 100 µM (inactive) in each case. Besides, the GI50 in the assay on TK-10, with EKVX, in the assay with SNB-19, with OVCAR-8, with A549 and with UO-31 was > 100 µM (inactive) each time. Also, the GI50 with RXF 393 was > 100 µM (inactive); in the assay on 786-0 it was > 100 µM (inactive); in the assay with SNB-75 it was 85.1 µM (inactive).

For the compound `Cc1ccc(/C=C/C(=O)c2ccc([N+](=O)[O-])cc2)cc1`, the GI50 is > 100 µM (inactive) in the assay on KM12; 0.815 µM (active) in the assay on A498; 21.2 µM (inactive) with U-251; > 100 µM (inactive) with SK-OV-3; > 100 µM (inactive) in the assay with SK-MEL-28; 56.4 µM (inactive) in the assay with NCI-H522. Moreover, the GI50 with TK-10 is > 100 µM (inactive); in the assay with EKVX, > 100 µM (inactive); in the assay on SNB-19, > 100 µM (inactive); with OVCAR-8, > 100 µM (inactive); in the assay with A549, > 100 µM (inactive); with HCT-15 it was above 100 µM. The GI50 with UO-31 is 59.4 µM (inactive); in the assay on RXF 393, > 100 µM (inactive); with 786-0 it was > 100 µM (inactive); with SNB-75 it was > 100 µM (inactive).

Consider `Cc1ccc(NC(=O)/C(CC(=O)c2c[n+]([O-])c3ccccc3[n+]2[O-])=N\NC(=O)C[n+]2ccccc2)cc1`, for which the GI50 in the assay on KM12, with A498, in the assay on U-251, in the assay on SK-OV-3, with SK-MEL-28 and with NCI-H522 was > 100 µM (inactive) in each case. In addition, the GI50 is > 100 µM (inactive) with TK-10; > 100 µM (inactive) with EKVX; > 100 µM (inactive) in the assay with SNB-19; > 100 µM (inactive) with OVCAR-8; > 100 µM (inactive) in the assay with A549; above 100 µM in the assay on HCT-15. Further, the GI50 in the assay on UO-31, in the assay with RXF 393, in the assay with 786-0 and in the assay with SNB-75 was > 100 µM (inactive) throughout.

Regarding `CCOC(=O)C1S/C(=N\c2ccc(C)c(C)c2)N=C1C` (stereo not given), the GI50 with KM12, in the assay with A498, in the assay with U-251, with SK-OV-3, with SK-MEL-28 and in the assay on NCI-H522 was > 100 µM (inactive) throughout. Also, the GI50 was > 100 µM (inactive) with TK-10; > 100 µM (inactive) in the assay with EKVX; > 100 µM (inactive) with SNB-19; > 100 µM (inactive) with OVCAR-8; > 100 µM (inactive) with A549; above 100 µM in the assay on HCT-15. The GI50 in the assay with UO-31 is > 100 µM (inactive); in the assay with 786-0, > 100 µM (inactive); in the assay with SNB-75, 66.8 µM (inactive).

For `COC(=O)C1=C(C(=O)OC)SC(=C(/N=N/c2ccccc2)c2ccccc2)S1`, the GI50 in the assay with KM12 was > 100 µM (inactive); in the assay with A498 it was > 100 µM (inactive); in the assay with U-251 it was > 100 µM (inactive); in the assay with SK-OV-3, > 100 µM (inactive); in the assay on SK-MEL-28, > 100 µM (inactive); with NCI-H522 it was 83.6 µM (inactive). In addition, the GI50 in the assay on TK-10 was > 100 µM (inactive); in the assay on EKVX, > 100 µM (inactive); in the assay on SNB-19, > 100 µM (inactive); in the assay with OVCAR-8 it was > 100 µM (inactive); in the assay with A549 it was > 100 µM (inactive); with HCT-15 it was above 100 µM. Further, the GI50 was > 100 µM (inactive) in the assay with UO-31, 50.8 µM (inactive) in the assay with 786-0 and > 100 µM (inactive) in the assay with SNB-75.

Take `COc1ccc(NC(=O)CSc2nnc(Cc3ccccc3)o2)cc1`: the GI50 with KM12 was > 100 µM (inactive); with A498, > 100 µM (inactive); in the assay on U-251, 34.5 µM (inactive); with SK-OV-3 it was > 100 µM (inactive); with SK-MEL-28 it was > 100 µM (inactive); in the assay with NCI-H522, 53.7 µM (inactive). Besides, the GI50 in the assay on TK-10 was > 100 µM (inactive); in the assay with SNB-19 it was 97.7 µM (inactive); with OVCAR-8, > 100 µM (inactive); in the assay with A549, > 100 µM (inactive); with HCT-15 it was above 100 µM; with UO-31 it was > 100 µM (inactive). The GI50 in the assay on RXF 393, in the assay on 786-0 and in the assay with SNB-75 was > 100 µM (inactive) throughout.
